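96-well plates; 48 h exposure; 5 concentrations. Endpoints by linear interpolation between flanking doses. Not reached: highest tested concentration assigned. GI50 = concentration required for 50% inhibition of growth.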 The source made the active and inactive calls. No stated cut-off is given here; in the data, active = GI50 up to about 1.1 µM and inactive = higher.
How the values were obtained:
Experiment in all cases: growth of human tumour cells (NCI), 48 h
[1] = system: M14
[2] = system: HOP-62
[3] = system: OVCAR-4
[4] = system: HOP-92
[5] = system: SNB-19
[6] = system: EKVX
[7] = system: 786-0
[8] = system: SN12C
[9] = system: IGROV-1
[10] = system: OVCAR-3
[11] = system: OVCAR-8
[12] = system: TK-10
[13] = system: HCT-15
[14] = system: NCI-H460
[15] = system: HL-60
[16] = system: RXF 393
[17] = system: K562
[18] = system: UO-31
[19] = system: SF-268

Row | Compound | GI50 [1] | GI50 [2] | GI50 [3] | GI50 [4] | GI50 [5] | GI50 [6] | GI50 [7] | GI50 [8] | GI50 [9] | GI50 [10] | GI50 [11] | GI50 [12] | GI50 [13] | GI50 [14] | GI50 [15] | GI50 [16] | GI50 [17] | GI50 [18] | GI50 [19]
1 | COc1ccc(C(c2ccc(C(C)C)cc(=O)c2O)c2c(O)cc3oc(-c4ccccc4)cc(=O)c3c2O)cc1 (stereo not given) | 7.26 µM (inactive) | 2.07 µM (inactive) | 7.53 µM (inactive) | < 0.01 µM (active) | 4.14 µM (inactive) | 12.6 µM (inactive) | 3.57 µM (inactive) | 16.5 µM (inactive) | 3.91 µM (inactive) | 5.86 µM (inactive) | 6.9 µM (inactive) | 9.42 µM (inactive) | 6.9 µM | 3.37 µM (inactive) | 4.4 µM (inactive) | 3.71 µM (inactive) | 3.03 µM (inactive) |  | 
2 | CC/C=C(\C(=C/CC)[N+](=O)[O-])[N+](=O)[O-] | 13.4 µM (inactive) | 58.2 µM (inactive) | 22.8 µM (inactive) | 23.7 µM (inactive) | > 100 µM (inactive) | 15.6 µM (inactive) |  | 18.9 µM (inactive) | 17.6 µM (inactive) | 16.1 µM (inactive) | 21.4 µM (inactive) | 18.1 µM (inactive) |  | 18 µM (inactive) |  | 14.9 µM (inactive) | 30.3 µM (inactive) | 18.9 µM (inactive) | 
3 | Cc1cc(N(CCC#N)CCC#N)ccc1/N=N/c1cc(Cl)ccc1Cl | 3.46 µM (inactive) | 19.5 µM (inactive) | 3.07 µM (inactive) |  | 17.5 µM (inactive) | 13.6 µM (inactive) | 14.6 µM (inactive) | 13.4 µM (inactive) | 15.1 µM (inactive) | 5.51 µM (inactive) | 7.74 µM (inactive) | 11.1 µM (inactive) | 2.05 µM |  | 3.39 µM (inactive) | 10.5 µM (inactive) | 2.78 µM (inactive) | 16.7 µM (inactive) | 15.6 µM (inactive)
4 | C[C@H]1COC(c2ccccn2)=N1 |  | > 100 µM (inactive) | > 100 µM (inactive) | > 100 µM (inactive) | > 100 µM (inactive) | > 100 µM (inactive) |  | > 100 µM (inactive) | > 100 µM (inactive) | > 100 µM (inactive) | > 100 µM (inactive) |  | > 100 µM | > 100 µM (inactive) | > 100 µM (inactive) | > 100 µM (inactive) | > 100 µM (inactive) | > 100 µM (inactive) | > 100 µM (inactive)
5 | CC12CCC3C(CCC4=CC(O)CCC43C=O)C1(O)CCC2c1ccc(=O)oc1 (stereo not given) |  | 0.05 µM (active) | 0.00723 µM (active) | 0.0164 µM (active) | 0.00622 µM (active) | 0.0124 µM (active) |  | 0.00438 µM (active) | 0.00984 µM (active) | 0.00368 µM (active) | 0.00622 µM (active) |  | 0.0508 µM | 0.00182 µM (active) | 0.00395 µM (active) |  | 0.05 µM (active) | 0.027 µM (active) | 
6 | CC1=N/C(=C/c2ccc3c(c2)OCO3)C(=O)O1 | > 100 µM (inactive) |  | > 100 µM (inactive) | > 100 µM (inactive) | > 100 µM (inactive) | > 100 µM (inactive) | > 100 µM (inactive) | > 100 µM (inactive) | > 100 µM (inactive) | > 100 µM (inactive) | > 100 µM (inactive) | > 100 µM (inactive) | > 100 µM |  |  | > 100 µM (inactive) | > 100 µM (inactive) | > 100 µM (inactive) | > 100 µM (inactive)
7 | CCNCCCCNCC |  | > 3750 µM (inactive) | > 3750 µM (inactive) | > 3750 µM (inactive) | > 3750 µM (inactive) | > 3750 µM (inactive) |  | > 2330 µM (inactive) | > 3750 µM (inactive) | > 3750 µM (inactive) | > 3750 µM (inactive) |  | > 3750 µM | 525 µM (inactive) | 736 µM (inactive) | > 3260 µM (inactive) | > 3750 µM (inactive) | > 1230 µM (inactive) | > 2990 µM (inactive)
8 | CC(=O)NC(CCCNC(=O)N(C)N=O)C(=O)NCc1ccccc1 (stereo not given) | > 100 µM (inactive) | > 100 µM (inactive) | > 100 µM (inactive) | > 100 µM (inactive) | > 100 µM (inactive) | > 100 µM (inactive) | > 100 µM (inactive) | > 100 µM (inactive) | > 100 µM (inactive) | > 100 µM (inactive) | > 100 µM (inactive) | > 100 µM (inactive) | > 100 µM | > 100 µM (inactive) |  | > 100 µM (inactive) | > 100 µM (inactive) | > 100 µM (inactive) | > 100 µM (inactive)
9 | COC(=O)/C=c1\s/c(=C\C(=O)OC)c2ccccc12 | > 100 µM (inactive) |  | > 100 µM (inactive) | > 100 µM (inactive) | > 100 µM (inactive) | > 100 µM (inactive) | > 100 µM (inactive) | > 100 µM (inactive) | > 100 µM (inactive) | > 100 µM (inactive) | > 100 µM (inactive) | > 100 µM (inactive) | 33.8 µM |  | > 100 µM (inactive) | > 100 µM (inactive) | > 100 µM (inactive) | 89.1 µM (inactive) | > 100 µM (inactive)
10 | CC(=O)C1CC(C)=CCC12C(=O)Nc1ccccc12 (stereo not given) | > 100 µM (inactive) | > 100 µM (inactive) | > 100 µM (inactive) | > 100 µM (inactive) | > 100 µM (inactive) | > 100 µM (inactive) | > 100 µM (inactive) | > 100 µM (inactive) | > 100 µM (inactive) | > 100 µM (inactive) | > 100 µM (inactive) | > 100 µM (inactive) | > 100 µM | > 100 µM (inactive) | > 100 µM (inactive) | 13.9 µM (inactive) | > 100 µM (inactive) |  | > 100 µM (inactive)
11 | CC(C)=C[C@@H]1C[C@H](C)[C@H]2CC[C@H](C)[C@H]3C(=O)C(O)=C(C)C(=O)[C@]123 | > 100 µM (inactive) | > 100 µM (inactive) | 90.8 µM (inactive) | 42.7 µM (inactive) | > 100 µM (inactive) | > 100 µM (inactive) | > 100 µM (inactive) | > 100 µM (inactive) | > 100 µM (inactive) | > 100 µM (inactive) | > 100 µM (inactive) | > 100 µM (inactive) | > 100 µM | > 100 µM (inactive) | > 100 µM (inactive) |  | > 100 µM (inactive) | > 100 µM (inactive) | > 100 µM (inactive)
12 | CCC1C(=O)C[C@H]2[C@@H]3C(O)CC4=CC(=O)CC[C@]4(C)[C@H]3CC[C@]12C (stereo not given in full) | > 50 µM (inactive) | > 50 µM (inactive) | > 50 µM (inactive) | > 50 µM (inactive) | > 50 µM (inactive) | > 50 µM (inactive) | > 50 µM (inactive) | > 50 µM (inactive) | > 50 µM (inactive) | > 50 µM (inactive) | > 50 µM (inactive) | > 50 µM (inactive) | > 50 µM | > 50 µM (inactive) | > 50 µM (inactive) |  | > 50 µM (inactive) | > 50 µM (inactive) | > 50 µM (inactive)
13 | C[C@]12CCC(=O)C=C1CC[C@@H]1C2CC[C@]2(C)NC(=O)C(C#N)CC12 (stereo not given in full) | > 100 µM (inactive) | 39.6 µM (inactive) | > 100 µM (inactive) |  |  |  | > 100 µM (inactive) |  | > 100 µM (inactive) | > 100 µM (inactive) | > 100 µM (inactive) | > 100 µM (inactive) | > 100 µM | > 100 µM (inactive) | > 100 µM (inactive) | > 100 µM (inactive) | > 100 µM (inactive) | > 100 µM (inactive) | 
14 | COc1ccc2nc3c(C(=O)NCCN(C)C)cccc3cc2c1 |  | 2.63 µM (inactive) | 2.6 µM (inactive) | 2.28 µM (inactive) | 2.23 µM (inactive) | 2.34 µM (inactive) |  | 1.75 µM (inactive) | 2.03 µM (inactive) |  | 1.47 µM (inactive) |  | 2.25 µM | 0.724 µM (active) | 1.4 µM (inactive) | 1.78 µM (inactive) | 3.07 µM (inactive) | 1.44 µM (inactive) | 2.82 µM (inactive)
15 | CC(=O)OC(C)C(=O)C1c2cccc(O)c2C(=O)c2c(O)cc(C)cc21 (stereo not given) |  | 0.343 µM (active) | 0.452 µM (active) | 0.288 µM (active) | 0.344 µM (active) | 1.36 µM (inactive) | 1.09 µM (active) | 0.879 µM (active) | 0.478 µM (active) | 0.427 µM (active) | 1.06 µM (active) | 1.42 µM (inactive) | 0.479 µM | 0.375 µM (active) | 0.308 µM (active) | 0.259 µM (active) | 0.354 µM (active) | 0.261 µM (active) | 0.381 µM (active)
16 | O=C(CC/C(C/C(=N/O)c1ccc(F)cc1)=N/O)N(Cc1ccccc1)Cc1ccccc1 | > 100 µM (inactive) | > 100 µM (inactive) | > 100 µM (inactive) | > 100 µM (inactive) | > 100 µM (inactive) | 58.6 µM (inactive) | > 100 µM (inactive) | > 100 µM (inactive) | > 100 µM (inactive) | > 100 µM (inactive) | > 100 µM (inactive) | > 100 µM (inactive) | > 100 µM | > 100 µM (inactive) | > 100 µM (inactive) | > 100 µM (inactive) | > 100 µM (inactive) | > 100 µM (inactive) | > 100 µM (inactive)
17 | O=S(=O)(N/C(=N\O)Nc1ccc(Cl)cc1)c1cc2ccccc2s1 | 17.9 µM (inactive) | 17.7 µM (inactive) | 14.4 µM (inactive) | 18.3 µM (inactive) | 17 µM (inactive) | 12.9 µM (inactive) | 18.4 µM (inactive) | 18.6 µM (inactive) | 13.5 µM (inactive) | 15 µM (inactive) | 16.8 µM (inactive) | 19.4 µM (inactive) | 18 µM | 31.8 µM (inactive) | 11.7 µM (inactive) | 15.1 µM (inactive) | 27.9 µM (inactive) | 33.9 µM (inactive) | 15.2 µM (inactive)

Reference: ChEMBL document CHEMBL1201862, “PubChem BioAssay data set” (2004)
